Data taken from patent US10517867B2, “Posaconazole derivative, pharmaceutical composition and use thereof” (priority 2016, dated 2019).

Tests used:
[1] = Pharmacokinetics after single intravenous administration to rats; format: in vivo, SD rats; details: posaconazole in saline solution as a control, tail vein
Protocol: Administration amount: 2.5 mg/kg (calculated as posaconazole)
Administration volume: 2.5 ml/kg
Drug concentration: 1 mg/mL
Administration vehicle: normal saline
Administration route: tail vein injection
Experimental animals: SD rats, SPF grade, weighing 180-220 g, equal amount of male and female. Rats were randomly divided into groups of 6 with 3 males and 3 females.
Experimental protocol: blood samples were collected at different time points after tail vein administration and plasma posaconazole concentrations were measured.

[2] = Determination of solubility in deionized water (HPLC, external standard); details: 25 °C, water, thermodynamic from solid

plasma posaconazole detection [1]: not detected | solubility at 30 min [2]: < 1000 µg/mL
Structure (SMILES): CC[C@@H]([C@H](C)O)n1ncn(-c2ccc(N3CCN(c4ccc(OC[C@@H]5CO[C@@](Cn6cncn6)(c6ccc(F)cc6F)C5)cc4)CC3)cc2)c1=O [Posaconazole, posaconazole]
